Data reported in US20050227918A1, “Method for assaying susceptibility to cancer therapy in a subject by assaying for tumors of P53” (priority 2004, published 2005).
“Also recorded” adds a separate entry of the source. d = 2'-deoxy (DNA); r = 2'-OH (RNA)

Experiments:
H1299 p53-/- cells = assay: Flow cytometric analysis of apoptosis (sub-G1) and cell cycle in H1299 cells inducibly expressing 72R or 72P wild-type p53; format: cell-based, Human; conditions: for apoptosis (sub-G1 fraction), 72R versus 72P expressing cells: induced H1299, 5-FU 50 μg/ml, cisplatin, taxol, etoposide, doxorubicin; for apoptosis (sub-G1 fraction), 72R versus 72P expressing cells / difference in apoptosis between 72R and 72P: camptothecin 5 μM, 24 hours; for difference in apoptosis between 72R and 72P: H1299 clones, doxorubicin 1 μg/ml; for apoptosis and cell cycle effect on induction of 72P p53: H1299 induced to express 72P wild-type p53; for apoptosis and cell cycle effect on induction of 72P p53 / apoptosis and cell cycle effect on induction of 72R p53: cisplatin 1 μg/ml, taxol 500 ng/ml, flow cytometry after 24 hours; for apoptosis and cell cycle effect on induction of 72R p53: H1299 induced to express 72R wild-type p53
Description: 72R and 72P wild-type p53 plasmids were constructed by subcloning the inserts from pArgSP53 and pProSP53 (See Matlashewski, et al., Mol. Cell. Biol., 7:961-963 (1987), incorporated by reference) into commercially available pTRE, resulting in pTRE 72R p53 and pTRE 72P p53 plasmids. Human H1299 p53−/− cells, which were maintained in DMEM+10% fetal bovine serum, were transfected with the pTRE 72R p53 and pTRE 72P p53 plasmids in accordance with standard procedures, resulting in H1299 cells lines which inducibly express 72R or 72P p53 protein. These cell lines were grown in DMEM 10% FCS supplemented with 0.5 mg/ml G418 and 0.5 μg/ml puromycin. Expression of 72R or 72P wild-type p53 was induced in H1299 cells by doxycycline or non-induced. […] Control cells were not exposed to drugs. Flow cytometric analysis was then performed after 24 hours as described in Bergamaschi et al., Cancer Cell, 3:387-402 (2003), incorporated by reference. A minimum of six independent 72R-inducible and 72P-inducible clones were analyzed, to obviate the effect of clonal variation.
Further tests examined the cellular responses to the anticancer agents camptothecin and 5-fluorouracil (FU). H1299 cells were induced to express equal levels of 72R or 72P wild-type p53, as described supra, or not induced. […] The cells were then exposed to camptothecin (5 μM) or 5-FU (50 μg/ml). Flow cytometric analysis was performed after 24 hours.
Three experiments were conducted, each analyzing two independent clones of 72R-expressing H1299 cells and two independent clones of 72P-expressing H1299 cells. […] Control cells were not exposed to drugs, and control cells for camptothecin and 5-FU received the drug vehicle only. After 24 hours, apoptosis was determined by flow cytometry as previously described.

p73 = assay: Western blotting of endogenous p73 steady state levels following drug treatment; format: cell-based; conditions: 24 hours; for levels of p73 in HN30: head and neck squamous cell line HN30
Procedure: The squamous carcinoma cell lines (“SCC”) tested included cells of the head and neck, cervix, vulva, and immortalized skin […]. […] The cells were exposed to the drugs for 24 hours, after which they were harvested in a lysis buffer (50 mM Tris, 250 mM NaCl, 0.1% Nonidet NP-40, 5 mM EDTA, 1 mM PMSF, with a protease inhibitor cocktail). […] The immunoprecipitates were then resolved, on 10% polyacrylamide gels, and immunoblotted with the antibody, and a secondary anti-mouse light chain antibody conjugated to horseradish peroxidase, which was then visualized using standard methods.

Saos-2 cells [1] = assay: Apoptosis (sub-G1) in Saos-2 cells expressing dominant-negative p73 inhibitors; format: cell-based; conditions: for sensitivity to apoptosis of Saos-2 cells expressing p73Δ2 and p73DD: dominant-negative p73 inhibitors; for sensitivity to apoptosis of Saos-2 lines expressing p73DD (L371P): inactive point mutation
Procedure: The Saos-2 cells were maintained, as described, supra, and cell lines stably expressing the dominant negative inhibitors were generated by transfection, and then cultivation in the presence of 400 μg/ml of G418. Isolated colonies were ring cloned, and then the expression of transfected sequences was confirmed.
The cells, when in exponential growth phase, received 10 μg of a plasmid encoding p73, and 3 μg of pcDNA3CD20. Twenty-four hours after transfection, cells were harvested, stained with propidiumiodide, and apoptosis was determined as percentage of sub-G1 cells.
In brief, this was determined by seeding 10^2-10^6 cells, in quadruplicate, onto 9 cm tissue culture dishes, and were treated, 24 hours later, for 2 hours, with cytotoxic drugs at various concentrations. Following drug exposure, the cells were grown until visible colonies appeared. They were then fixed in methanol, and stained with Giemsa. Survival was calculated relative to the cells receiving the drug vehicle alone.

H1299 cells = assay: Colony-survival assays of H1299 cells expressing p53 variants; format: cell-based, Human
Procedure: The cytotoxicity of anticancer agents was determined in colony-survival assays of H1299 cells using standard protocols, following Bergamaschi, et al., supra, and as per the earlier examples. Briefly, H1299 cells were treated with doxycycline to induce p53 and plated at multiple densities. […] After drug exposure, cells were re-plated in drug free medium and grown until the appearance of visible colonies. Each drug exposure was done in triplicate in at least three experiments.
Further tests were performed to see if 46S influences cellular sensitivity to anticancer drugs in 72R-expressing cells.

p53 [2] = assay: siRNA and drug effect on p53 levels in squamous carcinoma cell lines (Western blotting); format: cell-based; conditions: head and neck squamous cells; siRNA 100 nM; doxorubicin 1 μg/ml, taxol 500 ng/ml, cisplatin 10 μg/ml; 24 hours
Procedure: After 24 hours, cell lysates were prepared and analyzed via Western blotting.

p53 [3] = assay: Western Blot analysis of p53 expression in transfected H1299 cells; format: cell-based, Human; conditions: cisplatin 1 μg/ml, 24 hours; each of the four variants 46A/46S 72R/72P
Procedure: H1299 cells were cotransfected with pcDNA3 CD20 and plasmids expressing 46A 72R, 46A 72P, 46S 72R, or 46S 72P wild-type p53 or with an empty vector (no p53, as a control), as described supra. […] After 24 hours, the cells were analyzed by flow cytometry. Western Blot analysis of p53 expression was also performed.

Hacat cells = assay: Drug-induced apoptosis after p53 siRNA; format: cell-based; conditions: 100 nM siRNA, drugs 48 hours later
Saos-2 cells [4] = format: cell-based
Procedure: The Saos-2 cells which had been engineered to stably express 72R and 72P mutants were then tested, in assays designed to determine whether p53 siRNA impacted drug resistance. Saos-2 cells which expressed 72R173Lp53 were treated with 100 nM of siRNA for p53, or with the same amount of PGL siRNA. […] Survival was assessed via colony forming ability.

p53-p73 complexes = p53-p73 complexes and p73 in Hacat cells after siRNA and drug treatment; format: cell-based; conditions: 100 nM siRNA
Procedure: As a follow up to the work, supra, experiments were carried out to determine if the siRNA influenced association of the mutant p53 molecules with p73. […] Cell lysates were prepared after 24 hours, and p53-p73 complexes were analyzed, as described supra.

p53 [5] = assay: siRNA effect on steady state levels of p53 mutant in cells expressing 72P 173L or 72R 173L; format: cell-based; conditions: siRNA 10-100 μM as printed
Procedure: To investigate this small inhibitory RNA (“siRNA”) oligonucleotides were used. The sequences:
The siRNA oligos were transfected into cells, in amounts ranging from 10-100 μM, using commercially available reagents. The siRNA was introduced into cells expressing either the 72P 173L mutant or the 72R173L mutant. Both were shown, supra, to inhibit p73.

In the case of `O=c1[nH]cc(F)c(=O)[nH]1` [5-FU, 5-fluorouracil], the “apoptosis (sub-G1 fraction), 72R versus 72P expressing cells” value (H1299 p53-/- cells) was “apoptosis was always higher in cells expressing the 72R p53 variant”.

`CC[C@@]1(O)C(=O)OCc2c1cc1n(c2=O)Cc2cc3ccccc3nc2-1` [camptothecin] was tested, and the “difference in apoptosis between 72R and 72P” value (H1299 p53-/- cells) was “twofold” and the “apoptosis (sub-G1 fraction), 72R versus 72P expressing cells” value (H1299 p53-/- cells) was “apoptosis was always higher in cells expressing the 72R p53 variant”.

For `N.N.[Cl][Pt][Cl]` [cisplatin], the “apoptosis and cell cycle effect on induction of 72P p53” value (H1299 p53-/- cells) was “minimal apoptosis but predominantly G1 arrest”, the “apoptosis and cell cycle effect on induction of 72R p53” value (H1299 p53-/- cells) was “increased sub-G1 fraction and a smaller G1 peak” and the “levels of p73 in HN30” value (p73) was “increased the levels of p73”. For the same compound, the “sensitivity to apoptosis of Saos-2 cells expressing p73Δ2 and p73DD” value (Saos-2 cells [1]) was “less sensitive to apoptosis”, the “sensitivity to apoptosis of Saos-2 lines expressing p73DD (L371P)” value (from here on “sensitivity to apoptosis … (L371P)”) (Saos-2 cells [1]) was “sensitivity similar to control Saos-2 cells” and the “sensitivity of cells expressing 46A 72P p53 versus 46S 72P p53” value (H1299 cells) was “similar”. The p53 levels (p53 [2]) was “unaffected” and the “levels of p53 protein after treatment” value (p53 [3]) was “increased”.

With `COc1cccc2c1C(=O)c1c(O)c3c(c(O)c1C2=O)C[C@@](O)(C(=O)CO)C[C@@H]3O[C@H]1C[C@H](N)[C@H](O)[C@H](C)O1` [doxorubicin] the “difference in apoptosis between 72R and 72P” value (H1299 p53-/- cells) was “eightfold”, the “p73 level, all cell lines” value (p73; 1 μg/ml doxorubicin, squamous carcinoma cell lines and Saos-2) was “increased p73 in all cell lines” and the “levels of p73 in HN30” value (p73) was “increased the levels of p73”. For the same compound, the “sensitivity to apoptosis of Saos-2 cells expressing p73Δ2 and p73DD” value (Saos-2 cells [1]) was “less sensitive to apoptosis”, the “sensitivity to apoptosis … (L371P)” value (Saos-2 cells [1]) was “sensitivity similar to control Saos-2 cells” and the “cytotoxic effect in cells expressing 46A 72R p53 relative to 46S 72R p53” value (H1299 cells) was “diminished”. The “sensitivity of cells expressing 46A 72P p53 versus 46S 72P p53” value (H1299 cells) was “similar” and the p53 levels (p53 [2]) was “unaffected”.

For `CC(=O)O[C@H]1C(=O)[C@@]2(C)[C@H]([C@H](OC(=O)c3ccccc3)[C@]3(O)C[C@H](OC(=O)[C@H](O)[C@@H](NC(=O)c4ccccc4)c4ccccc4)C(C)=C1C3(C)C)[C@]1(OC(C)=O)CO[C@@H]1C[C@@H]2O` [taxol], the “apoptosis and cell cycle effect on induction of 72P p53” value (H1299 p53-/- cells) was “minimal apoptosis but predominantly G1 arrest”, the “apoptosis and cell cycle effect on induction of 72R p53” value (H1299 p53-/- cells) was “increased sub-G1 fraction and a smaller G1 peak” and the “levels of p73 in HN30” value (p73) was “increased the levels of p73”. For the same compound, the “sensitivity to apoptosis of Saos-2 cells expressing p73Δ2 and p73DD” value (Saos-2 cells [1]) was “less sensitive to apoptosis”, the “sensitivity to apoptosis … (L371P)” value (Saos-2 cells [1]) was “sensitivity similar to control Saos-2 cells” and the p53 levels (p53 [2]) was “unaffected”.

For “p53 siRNA: small inhibitory RNA oligonucleotides, SEQ ID NO: 1 CUACUUCCUGAAAACAACG(d)TT and SEQ ID NO: 2 CGUUGUUUUCAGGAAGUAGd(TT) (chain 1 CUACUUCCUGAAAACAACGTT; chain 2 CGUUGUUUUCAGGAAGUAGTT; sugars from the 5' end r19 d2, backbone not given here)”, the “apoptosis after siRNA followed by anticancer drugs, compared to controls” value (Hacat cells) was “clear increase in apoptosis”, the “effect of siRNA on drug sensitivity, 143L mutant” value (Saos-2 cells [4]; Saos-2) was “similarly small effect” and the “sensitivity to cisplatin and doxyrubicin of cell lines expressing 175H, 179Y, 179R, 245S, 248W, 249S, 273C and 282W” value (Saos-2 cells [4]; both polymorphic forms) was “increased sensitivity”. The “amount of p53 which associated with p73” value (p53-p73 complexes) was “clear decrease”, the “increase in p73 production associated with drug exposure” value (p53-p73 complexes) was “not affected” and the “steady state levels of p53 polymorphic variants of the mutant” value (p53 [5]) was “dose dependent reduction”. For the same compound, the p53 levels (p53 [2]) was “reduced steady state levels of p53; also recorded: downregulated”.
